In patent US4843062A, “N-acyl-N-napthoylglycines as aldose reductase inhibitors” (American Home Products Corporation, priority 1987, dated 1989):
Like-named read-outs stand apart in the source and are kept apart here.

What was measured:
[1] = test system: sciatic nerve (galactitol accumulation); assay: Galactitol (dulcitol) accumulation in sciatic nerve of galactosemic rats; type: in vivo, rat (male, Sprague-Dawley); conditions: four days
Description: (§1) Such experiments are exemplified hereinbelow after the listing of the following general comments pertaining to these experiments.
(§2) (a) Four or more groups of six male rats, 50-70 g, Sprague-Dawley strain, were used. The first group, the control group, was fed a mixture of laboratory chow (rodent Laboratory Chow, Purina) and glucose at 20% (w/w %) concentration. […] The test compound was either admixed to the diet or administered by gavage. In experiments involving compound administration in the diet, the average dose administered was calculated from the actual food intake of the animals in each group. The concentration of galactose in the diet of the treated groups was the same as that for the untreated galactosemic group.
(§3) (b) After four days, the animals were killed by decapitation. The eyeballs were removed and punctured with a razor blade; the freed lenses were rolled gently on filter paper and weighed. The sciatic nerves were dissected as completely as possible and weighed. Both tissues when frozen can be kept up to two weeks before being analyzed for galactitol.
(§4) (c) The polyol determination was performed by a modification of the procedure of M. Kraml and L. Cosyns, Clin. Biochem., 2,373 (1969). Only two minor reagent changes were made: (a) The rinsing mixture was an aqueous 5% (w/v) trichloroacetic acid solution and (b) the stock solution was prepared by dissolving 25 mg of dulcitol in 100 mL of an aqueous trichloroacetic acid solution. [N.B.: For each experiment the average value found in the tissue from rats fed the glucose diet was subtracted from the individual values found in the corresponding tissue in galactose-fed rats to obtain the amount of polyol accumulated.] […] In the present case the procedure of Hayman and Kinoshita was modified in that the final chromatography step was omitted in the preparation of the enzyme from bovine lens.
(§5) The figures under L, N, and D represent the percentage decrease of galactitol accumulation in the tissues of the lens, sciatic nerve, and diaphragm, respectively, for treated rats as compared to untreated rats.

[2] = biological target: T1, aldose reductase (Bos taurus, UniProt P16116); assay: Aldose reductase inhibition in vitro (enzyme preparation from bovine lens, modified Hayman and Kinoshita procedure); type: biochemical; conditions: for inhibition at 10 µM / inhibition at 1 µM: read-out: % Inhibition IN VITRO; for inhibition at 0.1 µM / % Inhibition IN VITRO: 10^-7 M
T1 construct: preparation of the enzyme from bovine lens; from tissue; host or cells: bovine lens
Protocol: as §4, with “Only” for “(c) The polyol determination was performed by a modification of the procedure of M. Kraml and L. Cosyns, Clin. Biochem., 2,373 (1969). Only”

[3] = test system: lens (galactitol accumulation); assay: Galactitol (dulcitol) accumulation in lens of galactosemic rats; type: in vivo, rat (male, Sprague-Dawley); conditions: four days
Description: The aldose reductase inhibiting property of the compounds of this invention and the utilization of the compounds in preventing, diminishing and alleviating diabetic complications are demonstrable in experiments using galactosemic rats, see Dvornik et al, Science, 182, 1146 (1973). Such experiments are exemplified hereinbelow after the listing of the following general comments pertaining to these experiments.
(a) Four or more groups of six male rats, 50-70 g, Sprague-Dawley strain, were used. The first group, the control group, was fed a mixture of laboratory chow (rodent Laboratory Chow, Purina) and glucose at 20% (w/w %) concentration. The untreated galactosemic group and the drug-treated groups were fed a similar diet in which galactose is substituted for glucose. The test compound was either admixed to the diet or administered by gavage. In experiments involving compound administration in the diet, the average dose administered was calculated from the actual food intake of the animals in each group. The concentration of galactose in the diet of the treated groups was the same as that for the untreated galactosemic group.
as §3
(c) The polyol determination was performed by a modification of the procedure of M. Kraml and L. Cosyns, Clin. Biochem., 2,373 (1969). Only two minor reagent changes were made: (a) The rinsing mixture was an aqueous 5% (w/v) trichloroacetic acid solution and (b) the stock solution was prepared by dissolving 25 mg of dulcitol in 100 mL of an aqueous trichloroacetic acid solution. [N.B.: For each experiment the average value found in the tissue from rats fed the glucose diet was subtracted from the individual values found in the corresponding tissue in galactose-fed rats to obtain the amount of polyol accumulated.] The aldose reductase inhibiting effects of the compounds of formula (I) were also tested by employing an in vitro testing procedure similar to that described by S. Hayman and J. H. Kinoshita, J. Biol. Chem., 240,877 (1965). In the present case the procedure of Hayman and Kinoshita was modified in that the final chromatography step was omitted in the preparation of the enzyme from bovine lens.
as §5

[4] = test system: diaphragm (galactitol accumulation); assay: Galactitol (dulcitol) accumulation in diaphragm of galactosemic rats; type: in vivo, rat (male, Sprague-Dawley); conditions: four days
Description: as §1, §2, §4, §5

Structure (SMILES)	inhibition at 10 µM ([2]; 10^-5 M) [%]	inhibition at 1 µM ([2]; 10^-6 M) [%]	inhibition at 0.1 µM [2] [%]	other results
COc1ccc2c(C(=O)N(CC(=O)O)C(=O)OCc3ccccc3)cccc2c1C(F)(F)F	95	89	66	% Lowering dulcitol accumulation IN VIVO (%)N ([1]; 67 mg/kg): N.S.; % Lowering dulcitol accumulation IN VIVO (%)L ([3]; 67 mg/kg): N.S.; % Lowering dulcitol accumulation IN VIVO (%)D ([4]; 67 mg/kg): N.S.
CCCOC(=O)N(CC(=O)O)C(=O)c1cccc2c(C(F)(F)F)c(OC)ccc12 [Example 3]	95	90	81	% Lowering dulcitol accumulation IN VIVO (%)N ([1]; 48 mg/kg): N.S.; inhibition at 0.04 µM ([2]; 4 × 10^-8 M): 48%; % Lowering dulcitol accumulation IN VIVO (%)L ([3]; 48 mg/kg): N.S.; % Lowering dulcitol accumulation IN VIVO (%)D ([4]; 48 mg/kg): N.S.
COc1ccc2c(C(=O)N(CC(=O)O)C(=O)OC(C)C)cccc2c1C(F)(F)F [Example 4]	–	–	–	% Lowering dulcitol accumulation IN VIVO (%)N ([1]; dose not given (N.S.)): N.S.; % Lowering dulcitol accumulation IN VIVO (%)L ([3]; dose not given (N.S.)): N.S.; % Lowering dulcitol accumulation IN VIVO (%)D ([4]; dose not given (N.S.)): N.S.
COc1ccc2c(C(=O)N(CC(=O)O)C(=O)OCC(C)(C)C)cccc2c1C(F)(F)F [Example 5]	90	64	18	% Lowering dulcitol accumulation IN VIVO (%)N ([1]; 105 mg/kg): N.S.; % Lowering dulcitol accumulation IN VIVO (%)L ([3]; 105 mg/kg): N.S.; % Lowering dulcitol accumulation IN VIVO (%)D ([4]; 105 mg/kg): N.S.
COc1ccc2c(C(=O)N(CC(=O)O)C(=O)OCc3ccc(Cl)c([N+](=O)[O-])c3)cccc2c1C(F)(F)F [Example 7]	95	89	49	% Lowering dulcitol accumulation IN VIVO (%)N ([1]; 107 mg/kg): N.S.; % Lowering dulcitol accumulation IN VIVO (%)L ([3]; 107 mg/kg): N.S.; % Lowering dulcitol accumulation IN VIVO (%)D ([4]; 107 mg/kg): N.S.
COc1ccc2c(C(=O)N(C=O)CC(=O)O)cccc2c1C(F)(F)F [Example 8, N-Fromyl-N-[[6-methoxy-5-(trifluoromethyl)-1-naphthalenyl]carbonyl]glycine]	95	–	89	% Lowering dulcitol accumulation IN VIVO (%)N ([1]; 107 mg/kg): 51%; inhibition at 1 µM [2]: 96%
COc1ccc2c(C(=O)N(CC(=O)O)C(C)=O)cccc2c1C(F)(F)F [Example 9]	–	91	61	% Lowering dulcitol accumulation IN VIVO (%)N ([1]; 100 mg/kg): 36%; inhibition at 10 µM [2]: 96%; % Lowering dulcitol accumulation IN VIVO (%)L ([3]; 100 mg/kg): N.S.
COc1ccc2c(C(=O)N(CC(=O)O)C(=O)c3ccccc3)cccc2c1C(F)(F)F [Example 10, N-Benzoyl-N-[[6-methoxy-5-(trifluoromethyl)-1-naphthalenyl]carbonyl]glycine]	90	62	15	% Lowering dulcitol accumulation IN VIVO (%)N ([1]; 50 mg/kg): N.S.; % Lowering dulcitol accumulation IN VIVO (%)L ([3]; 50 mg/kg): N.S.; % Lowering dulcitol accumulation IN VIVO (%)D ([4]; 50 mg/kg): N.S.
COc1ccc2c(C(=O)N(CC(=O)O)C(=O)N(C)C)cccc2c1C(F)(F)F [Example 11, N-[(Dimethylamino)carbonyl]-N-[[6-methoxy-5-(trifluoromethyl)-1-naphthalenyl]carbonyl]glycine]	22	3	–	% Inhibition IN VITRO [2]: N.S.
COC(=O)N(CC(=O)O)C(=O)c1cccc2c(Br)cccc12 [Example 12]	85	54	10	% Lowering dulcitol accumulation IN VIVO (%)N ([1]; 102 mg/kg): N.S.; % Lowering dulcitol accumulation IN VIVO (%)L ([3]; 102 mg/kg): N.S.
O=C(O)CN(C(=O)OCc1ccccc1)C(=O)c1cccc2c(Br)cccc12 [Example 13]	87	57	12	–
O=CN(CC(=O)O)C(=O)c1cccc2c(Br)cccc12 [Example 14]	90	73	22	% Lowering dulcitol accumulation IN VIVO (%)N ([1]; 104 mg/kg): N.S; % Lowering dulcitol accumulation IN VIVO (%)L ([3]; 104 mg/kg): N.S.
CC(=O)N(CC(=O)O)C(=O)c1cccc2c(Br)cccc12 [Example 15]	82	41	7	% Lowering dulcitol accumulation IN VIVO (%)N ([1]; 112 mg/kg): N.S.; % Lowering dulcitol accumulation IN VIVO (%)L ([3]; 112 mg/kg): N.S.; % Lowering dulcitol accumulation IN VIVO (%)D ([4]; 112 mg/kg): N.S.
O=C(O)CN(C(=O)c1ccccc1)C(=O)c1cccc2c(Br)cccc12 [Example 16]	83	58	10	% Lowering dulcitol accumulation IN VIVO (%)N ([1]; 111 mg/kg): N.S.; % Lowering dulcitol accumulation IN VIVO (%)L ([3]; 111 mg/kg): N.S.; % Lowering dulcitol accumulation IN VIVO (%)D ([4]; 111 mg/kg): N.S.
CN(C)C(=O)N(CC(=O)O)C(=O)c1cccc2c(Br)cccc12 [Example 17]	23	4	–	% Inhibition IN VITRO [2]: N.S.
COC(=O)N(CC(=O)O)C(=S)c1cccc2c(C(F)(F)F)c(OC)ccc12 [Example 18a, N-[[6-Methoxy-5-(trifluoromethyl)-1-naphthalenyl]thioxomethyl]-N-[(methoxy)carbonyl]glycine]	–	88	29	% Lowering dulcitol accumulation IN VIVO (%)N ([1]; 51 mg/kg): N.S.; inhibition at 10 µM [2]: 94%; % Lowering dulcitol accumulation IN VIVO (%)L ([3]; 51 mg/kg): N.S.
COc1ccc2c(C(=S)N(C)CC(=O)O)cccc2c1C(F)(F)F [Example 18b, N-[[6-methoxy-5-(trifluoromethyl)-1-napthalenyl]thioxomethyl]-N-methyglycine, reference compound]	–	–	–	% Lowering dulcitol accumulation IN VIVO (%)L ([3]; 9 mg/kg): N.S.
